Reference: patent publication US20240368194A1, “IRAK4 DEGRADATION AGENT, AND PREPARATION METHOD THEREFOR AND USE THEREOF” (SHANGHAI LEADINGTAC PHARMACEUTICAL CO. LTD., priority 2021, published 2024)

What follows are compounds tested against IRAK4 protein in THP-1 cells (Homo sapiens (Human), UniProt Q9NWZ3) (assay: Degradation of IRAK4 in THP-1 cells, human IRAK4 AlphaLISA assay). Conditions: 24 h incubation.
Type: cell-based
Method: THP-1 cells (Stem Cell Bank, Chinese Academy of Sciences) were inoculated onto a 24-well cell culture plate at 0.95 mL/well, with a cell density of 5×10^5 cells/well. The cell plate was incubated overnight in a 37° C., 5% carbon dioxide incubator, and 50 μL of a solution of a compound in dimethyl sulfoxide was added, such that the final concentration of the compound fell within the range of 0.03-3000 nM. After another 24 h of incubation, cells were collected into 1.5 mL centrifuge tubes and centrifuged at 1000 rpm at 4° C. for 5 min. The cell pellets were washed twice with 1×DPBS. The resuspended cells were lysed with 200 μL of lysis buffer (Western and IP cell lysis buffer (Beyotime), supplemented with 1 mM phenylmethylsulfonyl fluoride and protease inhibitor cocktail (Beyotime)), left to stand on ice for 30 mini, and then centrifuged at 14,000 g at 4° C. for 10 min. The supernatant samples were assayed by Western Blot for IRAK4 protein levels.
The above cell lysates were also tested for IRAK4 degradation using a human IRAK4 AlphaLISA assay kit (PerkinElmer, AL3117C). The method is specifically as follows: 2-μL test samples of cell lysate supernatant were transferred to a white 384-well plate (PerkinElmer, 6007299), and 4 μL of 5× anti-IRAK4 receptor beads (PerkinElmer, final concentration of 10 μg/mL) was then added. The plate was incubated at 23° C. for 30 min. Then 4 μL of 5× biotin-labeled anti-IRAK4 antibody (PerkinElmer, final concentration of 1 nM) was added, and the plate was incubated at 23° C. for 60 min. Finally, 10 μL of 2′ streptavidin-labeled donor beads (final concentration of 40 μg/mL) was added to each well, and the plate was incubated in the dark at 23° C. for 30 min. After the incubation was complete, AlphaLISA signal values were measured on a microplate reader EnVision (PerkinElmer, 2105) in the AlphaScreen standard mode, and IRAK4 concentrations were calculated from these signal values. Then a non-linear curve fitting of logarithmic concentration-inhibition rate was performed using GraphPad Prism 7, and the DC50 and Dmax values of the compound were obtained.

Chain of IRAK4 protein in THP-1 cells (Q9NWZ3 whole entry): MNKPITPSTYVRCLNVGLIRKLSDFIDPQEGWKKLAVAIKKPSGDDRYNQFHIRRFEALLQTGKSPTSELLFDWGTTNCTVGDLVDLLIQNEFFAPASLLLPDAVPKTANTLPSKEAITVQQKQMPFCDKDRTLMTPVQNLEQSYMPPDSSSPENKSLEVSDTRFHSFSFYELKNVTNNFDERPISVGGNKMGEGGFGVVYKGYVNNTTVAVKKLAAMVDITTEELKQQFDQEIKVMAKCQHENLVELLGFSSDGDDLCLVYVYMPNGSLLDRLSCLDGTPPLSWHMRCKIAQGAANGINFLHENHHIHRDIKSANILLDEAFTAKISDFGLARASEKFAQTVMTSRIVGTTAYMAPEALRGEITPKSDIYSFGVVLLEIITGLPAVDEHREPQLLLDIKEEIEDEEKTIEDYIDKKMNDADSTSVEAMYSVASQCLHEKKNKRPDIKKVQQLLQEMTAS

DC50 [nM] | Dmax [%] | Structure (SMILES)
5.23 | 90.1 | CN(CCC1CCN(C(=O)c2ccc(Cl)c(N3CCC(=O)NC3=O)c2)CC1)C[C@H]1CC[C@H](n2cc(NC(=O)c3cnn4ccc(N5CCOCC5)nc34)c(C(F)F)n2)CC1 [Example 30, N-(1-((1R,4R)-4-(((2-(1-(4-chloro-3-(2,4-dioxotetrahydropyrimidin-1(2H)-yl)benzoyl)piperidin-4-yl)ethyl)(methyl)amino)methyl)cyclohexyl)-3-(difluoromethyl)-1H-pyrazol-4-yl)-5-morpholinopyrazolo[1,5-a]pyrimidine-3-carboxamide]
6.1 | 91.1 | CN(CCC1CCN(C(=O)c2ccc(Cl)c(N3CCC(=O)NC3=O)c2)CC1)C[C@H]1CC[C@H](n2cc(NC(=O)c3cnn4ccc(N5CC6CCC(C5)O6)nc34)c(C(F)F)n2)CC1 [Example 31, 5-(8-oxa-3-azabicyclo[3.2.1]octan-3-yl)-N-(1-((1R,4R)-4-(((2-(1-(4-chloro-3-(2,4-dioxotetrahydropyrimidin-1(2H)-yl)benzoyl)piperidin-4-yl)ethyl)(methyl)amino)methyl)cyclohexyl)-3-(difluoromethyl)-1H-pyrazol-4-yl)pyrazolo[1,5-a]pyrimidine-3-carboxamide]
3.46 | 90.5 | O=C1CCN(c2cc(C(=O)N3CCC4(CCN(C[C@H]5CC[C@H](n6cc(NC(=O)c7cnn8ccc(N9CC%10CCC(C9)O%10)nc78)c(C(F)F)n6)CC5)CC4)CC3)ccc2Cl)C(=O)N1 [Example 32, 5-(8-oxa-3-azabicyclo[3.2.1]octan-3-yl)-N-(1-((1R,4R)-4-((9-(4-chloro-3-(2,4-dioxotetrahydropyrimidin-1(2H)-yl)benzoyl)-3,9-diazaspiro[5.5]undecan-3-yl)methyl)cyclohexyl)-3-(difluoromethyl)-1H-pyrazol-4-yl)pyrazolo[1,5-a]pyrimidine-3-carboxamide]
0.78 | 100 | COc1ccc(C(=O)N2CCC(CCN(C)C[C@H]3CC[C@H](n4cc(NC(=O)c5cnn6ccc(N7CCC[C@H](O)C7)nc56)c(C(F)F)n4)CC3)CC2)cc1N1CCC(=O)NC1=O [Example 35, N-(3-(difluoromethyl)-1-((1R,4S)-4-(((2-(1-(3-(2,4-dioxotetrahydropyrimidin-1(2H)-yl)-4-methoxybenzoyl)piperidin-4-yl)ethyl)(methyl)amino)methyl)cyclohexyl)-1H-pyrazol-4-yl)-5-((S)-3-hydroxypiperidin-1-yl)pyrazolo[1,5-a]pyrimidine-3-carboxamide]
3.45 | 96 | COc1ccc(C(=O)N2CCC(CCN(C)C[C@H]3CC[C@H](n4cc(NC(=O)c5cnn6ccc(N7CCC[C@H](N)C7)nc56)c(C(F)F)n4)CC3)CC2)cc1N1CCC(=O)NC1=O [Example 36, 5-((S)-3-aminopiperidin-1-yl)-N-(3-(difluoromethyl)-1-((1R,4S)-4-(((2-(1-(3-(2,4-dioxotetrahydropyrimidin-1(2H)-yl)-4-methoxybenzoyl)piperidin-4-yl)ethyl)(methyl)amino)methyl)cyclohexyl)-1H-pyrazol-4-yl)pyrazolo[1,5-a]pyrimidine-3-carboxamide]
10.9 | 93.9 | COc1ccc(C(=O)N2CCC(CCN(C)C[C@H]3CC[C@H](n4cc(NC(=O)c5cnn6ccc(N7CC8(COC8)C7)nc56)c(C(F)F)n4)CC3)CC2)cc1N1CCC(=O)NC1=O [Example 39, N-(3-(difluoromethyl)-1-((1R,4R)-4-(((2-(1-(3-(2,4-dioxotetrahydropyrimidin-1(2H)-yl)-4-methoxybenzoyl)piperidin-4-yl)ethyl)(methyl)amino)methyl)cyclohexyl)-1H-pyrazol-4-yl)-5-(2-oxa-6-azaspiro[3.3]heptan-6-yl)pyrazolo[1,5-a]pyrimidine-3-carboxamide]
0.82 | 96.2 | Cc1ccc(C(=O)N2CCC3(CCN(C[C@H]4CC[C@H](n5cc(NC(=O)c6cnn7ccc(N8CCC[C@H](O)C8)nc67)c(C(F)F)n5)CC4)CC3)CC2)cc1N1CCC(=O)NC1=O [Example 45, N-(3-(difluoromethyl)-1-((1R,4S)-4-((9-(3-(2,4-dioxotetrahydropyrimidin-1(2H)-yl)-4-methylbenzoyl)-3,9-diazaspiro[5.5]undecan-3-yl)methyl)cyclohexyl)-1H-pyrazol-4-yl)-5-((S)-3-hydroxypiperidin-1-yl)pyrazolo[1,5-a]pyrimidine-3-carboxamide]
4.84 | 99 | CN(CCC1CCN(C(=O)c2ccc(Cl)c(N3CCC(=O)NC3=O)c2)CC1)C[C@H]1CC[C@H](n2cc(NC(=O)c3cnn4ccc(N5CCC[C@H](N)C5)nc34)c(C(F)F)n2)CC1 [Example 47, 5-((S)-3-aminopiperidin-1-yl)-N-(1-((1R,4S)-4-(((2-(1-(4-chloro-3-(2,4-dioxotetrahydropyrimidin-1(2H)-yl)benzoyl)piperidin-4-yl)ethyl)(methyl)amino)methyl)cyclohexyl)-3-(difluoromethyl)-1H-pyrazol-4-yl)pyrazolo[1,5-a]pyrimidine-3-carboxamide]

The next lines start with the compound.

Structure (SMILES) | DC50 [nM] | Dmax [%]
Cc1nn([C@H]2CC[C@H](CN3CCC4(CC3)CCN(C(=O)c3ccc(Cl)c(N5CCC(=O)NC5=O)c3)CC4)CC2)cc1NC(=O)c1cnn2ccc(N3C[C@H]4C[C@@H]3CO4)nc12 [Example 7, 5-((1R,4R)-2-oxa-5-azabicyclo[2.2.1]heptan-5-yl)-N-(1-((1R,4R)-4-((9-(4-chloro-3-(2,4-dioxotetrahydropyrimidin-1(2H)-yl)benzoyl)-3,9-diazaspiro[5.5]undecan-3-yl)methyl)cyclohexyl)-3-methyl-1H-pyrazol-4-yl)pyrazolo[1,5-a]pyrimidine-3-carboxamide] | 148 | 76.4
COc1cc2nn([C@H]3CC[C@](O)(COCC4CCN(C(=O)c5ccc(Cl)c(N6CCC(=O)NC6=O)c5)CC4)CC3)cc2cc1NC(=O)c1cccc(C(F)(F)F)n1 [Example 8, N-(2-((1S,4S)-4-(((1-(4-chloro-3-(2,4-dioxotetrahydropyrimidin-1(2H)-yl)benzoyl)piperidin-4-yl)methoxy)methyl)-4-hydroxycyclohexyl)-6-methoxy-2H-indol-5-yl)-6-(trifluoromethyl)pyridinecarboxamide] | 8.8 | 86.8
COc1cc2nn([C@H]3CC[C@](O)(COCCC4CCN(C(=O)c5ccc(Cl)c(N6CCC(=O)NC6=O)c5)CC4)CC3)cc2cc1NC(=O)c1cccc(C(F)(F)F)n1 [Example 10] | 2.8 | 99.3
CN(CCC1CCN(C(=O)c2ccc(Cl)c(N3CCC(=O)NC3=O)c2)CC1)C[C@H]1CC[C@H](n2cc(NC(=O)c3cnn4ccc(N5C[C@H]6C[C@@H]5CO6)nc34)c(C(F)F)n2)CC1 [Example 11, 5-((1R,4R)-2-oxa-5-azabicyclo[2.2.1]heptan-5-yl)-N-(1-((1R,4R)-4-(((2-(1-(4-chloro-3-(2,4-dioxotetrahydropyrimidin-1(2H)-yl)benzoyl)piperidin-4-yl)ethyl)(methyl)amino)methyl)cyclohexyl)-3-(difluoromethyl)-1H-pyrazol-4-yl)pyrazolo[1,5-a]pyrinidine-3-carboxamide] | 12.7 | 90.7
COc1cc2nn([C@H]3CC[C@](O)(CN(C)CC4CCC5(CC4)CCN(C(=O)c4ccc(Cl)c(N6CCC(=O)NC6=O)c4)CC5)CC3)cc2cc1NC(=O)c1cccc(C(F)(F)F)n1 [Example 17] | 10.4 | 99.4
COc1cc2nn([C@H]3CC[C@@](COCCC4CCN(C(=O)c5ccc(Cl)c(N6CCC(=O)NC6=O)c5)CC4)(OC)CC3)cc2cc1NC(=O)c1cccc(C(F)(F)F)n1 [Example 22, N-(2-((1S,4S)-4-((2-(1-(4-chloro-3-(2,4-dioxotetrahydropyrimidin-1(2H)-yl)benzoyl)piperidin-4-yl)ethoxy)methyl)-4-methoxycyclohexyl)-6-methoxy-2H-indazol-5-yl)-6-(trifluoromethyl)pyridinecarboxamide] | 3.42 | 96.5
O=C1CCN(c2cc(C(=O)N3CCC4(CCN(C[C@H]5CC[C@H](n6cc(NC(=O)c7cnn8ccc(N9CCOCC9)nc78)c(C(F)F)n6)CC5)CC4)CC3)ccc2Cl)C(=O)N1 [Example 29, N-(1-((1R,4R)-4-((9-(4-chloro-3-(2,4-dioxotetrahydropyrimidin-1(2H)-yl)benzoyl)-3,9-diazaspiro[5.5]undecan-3-yl)methyl)cyclohexyl)-3-(difluoromethyl)-1H-pyrazol-4-yl)-5-morpholinopyrazolo[1,5-a]pyrimidine-3-carboxamide] | 2.75 | 98.5
